Data reported in patent US10441565B2, “Conjugate of memantine and arctigenin, and composition and use thereof” (Shenzhen Qingyaqirui Bio-Tech Co., Ltd., priority 2015, dated 2019).
Where a name gives a salt, the structure may show the parent alone.

Legend:
[1] = tested on: drosophila Alzheimer's disease model wherein humanized A342 was overexpressed; experiment: Pavlovian olfactory memory test, rescue of memory impairment in drosophila AD model; format: in vivo
From the text: A drosophila Alzheimer's disease model wherein humanized A342 was overexpressed (the model drosophila has significant learning and memory defects), was employed in the present invention to evaluate the effect of conjugate A04 in rescuing the learning and memory ability of the model drosophila.
Pavlovian olfactory memory platform was improved from the literatures (see Tully, T. et al., Classical conditioning and retention in normal and mutant Drosophila melanogaster. (1985) J. Comp. Physiol. A 157: 263-277; Tully, T. et al., Genetic dissection of consolidated memory in Drosophila. (1994) Cell 79: 35-47; Yin, J. C. et al., Induction of a dominant negative CREB transgene specifically blocks long-term memory in Drosophila. (1994) Cell 79: 49-58). The learning and memory test was performed in a behavior room having a constant temperature and humidity (25° C. and 70% relative humidity). The test comprises two stages:
training stage: about a hundred drosophilas were placed into a training tube covered with copper net inside, and the drosophilas sequentially smelt two odors (octanol (OCT) and methylcyclohexanol (MCH)). Each odor lasted for 1 minute, and after each of the odors, 45 seconds of fresh air were passed through. The drosophilas were subjected to 1 minute of electric shock only when it smelt the first odor. Such a set of procedures constituted a training cycle. In order to avoid the natural preference of the drosophilas for odors, one tube of the drosophilas smelt OCT first and then received an electric shock at each data point, while the other tube of the drosophilas smelt MCH first and then received an electric shock, and the mean value of the test results of the 2 tubes of drosophilas was a data point.
test stage: the drosophilas were immediately transferred to the selection point of a T-maze after the training, and then they were made to choose between the containers of the two odors within two minutes. After 2 minutes, the numbers of drosophilas in different containers were respectively counted, and the performance index (PI) was calculated. […]

[2] = Pharmacokinetics in rats after gastric gavage, ATG concentration in plasma by LC-MS; format: in vivo, SD rats
Experimental: This test investigated the pharmacokinetics of arctigenin (ATG) and conjugate A04 in rats. The rats were administered by gastric gavage with ATG and A04, the whole blood sample was collected at various time points, the plasma was separated, and the concentration of ATG in plasma was determined by LC-MS.
Before the test, the rats were fasted for 12 hours, with free access to water, and were fed 2 hours after administration.
Blood sampling time points: 0.5, 1.0, 2.0, 4.0, 6.0, 8.0 and 12 h after administration by gastric gavage.
0.5 mL venous blood was taken from the posterior venous plexus of the rat's eyeball at the above set time points, put in a heparinized tube, centrifuged for 5 min at 11000 rpm to separate the plasma, and froze in a refrigerator at −20° C.
200 μL acetonitrile was added into 100 μL plasma samples, vortex mixed for 1 min, and centrifuged for 5 min at 11000 rpm; all the supernatant was taken out and put in a 10 mL test tube, dried in an airflow at 40° C., dissolved in 100 μL acetonitrile-water (1:9, v/v), and 10 μL was taken for UPLC/Q-TOF MS analysis.

[3] = tested on: APP/PS1 transgenic AD model mice; experiment: Morris water maze test, memory impairment of APP/PS1 transgenic AD model mice; format: in vivo; details: 50 mg/kg/day by gastric gavage for 60 days, versus solvent-treated transgenic mice, FIG. 3
Experimental: In the present invention, conjugate A04 was administered by gastric gavage to APP/PS1 transgenic AD model mice, and then the effect of conjugate A04 on the memory impairment of transgenic AD model mice was detected through the classic Morris water maze test.
In this experiment, APP/PS1 double transgenic AD model mice, which developed Aβ deposition when they were about 6 months old, and had impairment on the space memory when they were about 7 months old, were employed. Therefore, in this experiment, the impairment on the space memory of the mice was further detected via the water maze test, and at the same time, whether conjugate A04 has a therapeutic or improving effect on the memory impairment was evaluated.
1) Identification of APP/PS1 double transgenic AD model mice: the mice's tail was snipped off, then the gene sequence of APP/PS1 in mice was identified by PCR. The wild type C57 (B6C3) mice were used as the negative control mice. […]
3) Morris water maze test: a mixture of water and fresh milk at a temperature of 19-20° C. was injected into a white round pool with a diameter of 120 centimeters daily in the test. […] The motion track and speed of the mice were automatically recorded by Anymaze and the matched camera. The average time of searching the platform in the four tests per day was recorded as the time for searching the platform on that day (latent period). […]

CC12CC3CC(C)(C1)CC(N)(C3)C2 [Mem, memantine]
performance index (PI) ([1]; AD drosophilas, 100 μM in 4% sucrose, 4 hours per day for 7 days, AD negative control PI 41, genetic control 19 higher): 55
rescue effect ([1]; AD drosophilas, negative control group 0%, genetic control group 100%): more than 50%

COc1cc(C[C@H]2C(=O)OC[C@@H]2Cc2ccc(OC)c(OC)c2)ccc1O [ATG, arctigenin]
oral bioavailability ([2]; according to further investigations of the present inventors): poor
ATG plasma concentration ([2]; rats, 20 mg/kg ATG by gastric gavage, lower detection limit 1.0 ng/ml): < 1.0 ng/mL

COc1ccc(C[C@H]2COC(=O)[C@@H]2Cc2ccc(OC(=O)NCCNC(=O)[C@@H](N)COC(=O)NC34CC5CC(C)(CC(C)(C5)C3)C4)c(OC)c2)cc1OC [Conjugate A04]
rescue effect on the memory impairment of AD drosophilas compared with Mem ([1]; 100 μM, 7 days, FIG. 2): better rescue effect on the memory impairment of AD drosophilas than Mem
latent period in the Morris water maze test [3]: significantly shorter than that of the transgenic mice treated with the solvent

CC12CC3CC(C)(C1)CC(N)(C3)C2 [memantine hydrochloride]
latent period in the Morris water maze test [3]: no significant change compared with that of the transgenic AD model mice
